Test results as given in USRE38863E1, “Chemotaxis assay procedure” (priority 1995, dated 2005).
Where “and” joins values, the source holds several entries; their conditions need not be identical. Identical values can stand only once.

Tested on: HL-60 cells
Assay: Chemotaxis assay: fluorescence of Di-I labeled cells migrated across radiation opaque membrane
Assay type: cell-based
Method: The cell line HL-60 (ATCC No. CCL 240) was maintained in logarithmic growth phase as a suspension culture at about 10^6 cells/mL. in RPMI 1640 medium (Mediatech Cellgrow, Fisher Scientific, Pittsburgh, PA.) supplemented with 20% (volume by volume) fetal bovine serum. (Hyclone Laboratories, Salt Lake City, UT). The cells were differentiated into mature myelocytes and neutrophils by incubating the cells for 48 hours at 37° C. in media containing 1.5% (volume by volume) dimethylsulfoxide.
Following the treatment with dimethylsulfoxide, the cells were incubated with 50 μM Di-I fluorescent dye (Molecular Probes, Inc., Eugene, OR) at room temperature for 0.5-2 hours. The cells were then washed with Hanks' Balanced Salt Solution (“HBSS”) (Sigma Chemical Co., St. Louis, MO.) and re-suspended in HBSS to achieve a cell concentration of 10^6 cells/mL. The fluorescence of 0.5 mL. of cell suspension was measured in a Cytofluor™ 2300 fluorescent plate reader (Millipore Corp., Marlborough, MA.).
Membrane 1: Polycarbonate film having a plurality of pores of 8 μm diameter were coated with four molecular layers of carbon and one layer of an admixture of gold and palladium in a vacuum evaporator. […] 6 mm disks of the radiation opaque membrane were glued to the bottom of inserts similar to the Millicell HA-12 mm (Millipore Corp.) or the Transwell-6.5 mm (Costar Corp., Cambridge, MA.) inserts with clear silicone rubber cement.
Membrane 2: A non-porous polyester film (18 μm thick) containing a blue dye (Aquired Technology Inc., Alpharetta, GA.) was subjected to atomic etching to produce a 10 μm thick radiation opaque membrane containing a plurality of pores of 8 μm diameter having a combined radiation blocking efficiency of approximately 99%. 6 mm disks of the radiation opaque membrane were glued to the bottoms of inserts as with membrane 1.
Each insert equipped with the either membrane 1 or membrane 2 were placed in a well of a 24-well culture plate (Falcon, Fisher Scientific). 0.5 mL of labeled cell suspension was placed inside each insert. The plate was incubated for 30 minutes at 37° C. to allow the cells to settle on the radiation opaque membrane. The fluorescence of each well was then measured with the Cytofluor™ 2300 to obtain a zero time reading. 0.5 mL of either N-formyl methionyl leucyl phenylalanine (“f-MLP”) (Sigma Chemical Co.) or HBBS was then added to each well. The fluorescence in each well was then measured at periodic time intervals using the Cytofluor™ 2300 at sensitivity setting 4. Results using membrane 1 are reported in Tables 1 and 2 and graphically illustrated in FIGS. 4 and 5. Results using membrane 2 are reported in Table 3 and graphically illustrated in FIGS. 6 and 7.

[1] = membrane 1, f-MLP/f-MLP (f-MLP also added to cell suspension immediately before start), 10^−7 M
[2] = membrane 1, insert/well HBSS/f-MLP, f-MLP Conc. = 10^−8 M
[3] = membrane 1, insert/well f-MLP/f-MLP (f-MLP added to cell suspension immediately before start), 10^−8 M
[4] = membrane 1, test solutions well/insert HBSS/f-MLP, f-MLP Conc. = 10^−7 M
[5] = membrane 2, Millicell-type insert, well 20: Insert leaked, insert/well HBSS/f-MLP, 2 × 10^−8 M
[6] = membrane 2, Millicell-type inserts, insert/well HBSS/f-MLP, f-MLP Conc. = 2 × 10^−8 M
[7] = membrane 2, Millicell-type inserts, insert/well f-MLP/f-MLP (f-MLP added to cell suspension immediately before start), 2 × 10^−8 M
[8] = membrane 2, Transwell-type inserts, insert/well HBSS/f-MLP, f-MLP Conc. = 2 × 10^−8 M
[9] = membrane 2, Transwell-type inserts, insert/well f-MLP/f-MLP (f-MLP added to cell suspension immediately before start), 2 × 10^−8 M

For CSCC[C@H](NC=O)C(=O)N[C@@H](CC(C)C)C(=O)N[C@@H](Cc1ccccc1)C(=O)O [f-MLP, N-formyl methionyl leucyl phenylalanine], the “Fluorescence 0 hr.” value (membrane 1, f-MLP/f-MLP (f-MLP also added to cell suspension immediately before start), 10^−7 M, 0 hr.) was 706, the “Fluorescence 1 hr.” value [1] was 654 and the “Fluorescence 2 hr.” value [1] was 708. The “Fluorescence 3 hr.” value [1] was 732, the “Fluorescence 4 hr.” value [1] was 728 and the “Fluorescence 5 hr.” value [1] was 753. For the same compound, the “FLUORESCENCE 0 min.” value (membrane 1, insert/well HBSS/f-MLP, f-MLP Conc. = 10^−8 M, 0 min. (zero time reading)) was 2515 and 2927 and 2895 and 2631 and 2594, the “FLUORESCENCE 15 min.” value [2] was 3388 and 4195 and 4165 and 3398 and 3446 and the “FLUORESCENCE 30 min.” value [2] was 3594 and 4475 and 4400 and 3584 and 3707. For the same compound, the “FLUORESCENCE 60 min.” value [2] was 3614 and 4642 and 4539 and 3645 and 3813, the “FLUORESCENCE 90 min.” value [2] was 3717 and 4761 and 4642 and 3728 and 3932 and the “FLUORESCENCE 150 min.” value [2] was 3770 and 4788 and 4655 and 3728 and 3999. The “FLUORESCENCE 0 min.” value (membrane 1, insert/well f-MLP/f-MLP (f-MLP added to cell suspension immediately before start), 10^−8 M, 0 min.) was 2854, the “FLUORESCENCE 15 min.” value [3] was 2675 and the “FLUORESCENCE 30 min.” value [3] was 2721. For the same compound, the “FLUORESCENCE 60 min.” value [3] was 2721, the “FLUORESCENCE 90 min.” value [3] was 2783 and the “FLUORESCENCE 150 min.” value [3] was 2783. The “Fluorescence 0 hr.” value (membrane 1, test solutions well/insert HBSS/f-MLP, f-MLP Conc. = 10^−7 M, 0 hr. (zero time reading)) was 383, the “Fluorescence 1 hr.” value [4] was 1046 and the “Fluorescence 2 hr.” value [4] was 1355. For the same compound, the “Fluorescence 3 hr.” value [4] was 1433, the “Fluorescence 4 hr.” value [4] was 1370 and the “Fluorescence 5 hr.” value [4] was 1359. The “Fluorescence 0 hr.” value (membrane 2, Millicell-type insert, well 20: Insert leaked, insert/well HBSS/f-MLP, 2 × 10^−8 M, 0 hr.) was 1228, the “Fluorescence 0.5 hr.” value [5] was 5928 and the “Fluorescence 1 hr.” value [5] was 6063. The “Fluorescence 2 hr.” value [5] was 6342, the “Fluorescence 3 hr.” value [5] was 6504 and the “Fluorescence 0 hr.” value (membrane 2, Millicell-type inserts, insert/well HBSS/f-MLP, f-MLP Conc. = 2 × 10^−8 M, 0 hr. (zero time reading)) was 1277 and 1242. For the same compound, the “Fluorescence 0.5 hr.” value [6] was 1573 and 1207, the “Fluorescence 1 hr.” value [6] was 1701 and 1830 and the “Fluorescence 2 hr.” value [6] was 1836 and 1931. For the same compound, the “Fluorescence 3 hr.” value [6] was 1851 and 1969, the “Fluorescence 0 hr.” value (membrane 2, Millicell-type inserts, insert/well f-MLP/f-MLP (f-MLP added to cell suspension immediately before start), 2 × 10^−8 M, 0 hr.) was 1187 and 1231 and the “Fluorescence 0.5 hr.” value [7] was 1181 and 1325. For the same compound, the “Fluorescence 1 hr.” value [7] was 1516 and 1454, the “Fluorescence 2 hr.” value [7] was 1622 and 1541 and the “Fluorescence 3 hr.” value [7] was 1673 and 1604. The “Fluorescence 0 hr.” value (membrane 2, Transwell-type inserts, insert/well HBSS/f-MLP, f-MLP Conc. = 2 × 10^−8 M, 0 hr. (zero time reading)) was 1055 and 1064 and 1097, the “Fluorescence 0.5 hr.” value [8] was 1770 and 1454 and 1775 and the “Fluorescence 1 hr.” value [8] was 2066 and 1846 and 2185. The “Fluorescence 2 hr.” value [8] was 2351 and 2143 and 2411, the “Fluorescence 3 hr.” value [8] was 2536 and 2292 and 2432 and the “Fluorescence 0 hr.” value (membrane 2, Transwell-type inserts, insert/well f-MLP/f-MLP (f-MLP added to cell suspension immediately before start), 2 × 10^−8 M, 0 hr.) was 1049 and 961. For the same compound, the “Fluorescence 0.5 hr.” value [9] was 1277 and 1245, the “Fluorescence 1 hr.” value [9] was 1413 and 1390 and the “Fluorescence 2 hr.” value [9] was 1538 and 1564. For the same compound, the “Fluorescence 3 hr.” value [9] was 1582 and 1711.
